{
  "source": "patent US10294202B2",
  "about": "“Pyrrolidinones as herbicides” (FMC Corporation, priority 2013, dated 2019)",
  "key": {"barnyardgrass [1]": {"test_system": "barnyardgrass", "assay": "Test C pre-/postemergence herbicide test", "assay_type": "in vivo, Echinochloa crus-galli", "excerpt": "(§1) Seeds of plant species selected from blackgrass (Alopecurus myosuroides), ryegrass, Italian (Italian ryegrass, Lolium multiflorum), wheat (winter wheat, Triticum aestivum), galium (catchweed bedstraw, Galium aparine), corn (Zea mays), crabgrass, large (large crabgrass, Digitaria sanguinalis), foxtail, giant (giant foxtail, Setaria faberii), johnsongrass (Sorghum halepense), lambsquarters (Chenopodium album), morningglory (Ipomoea coccinea), nutsedge, yellow (yellow nutsedge, Cyperus esculentus), pigweed (Amaranthus retroflexus), ragweed (common ragweed, Ambrosia elatior), soybean (Glycine max), barnyardgrass (Echinochloa crus-galli), oilseed rape (Brassica napus), waterhemp (common waterhemp, Amaranthus rudis), kochia (Kochia scoparia), oat, wild (wild oat, Avena fatua), surinam grass (Brachiaria decumbens), foxtail, green (green foxtail, Setaria viridis), goosegrass (Eleusine indica), bromegrass, downy (downy bromegrass, Bromus tectorum), nightshade (eastern black nightshade, Solanum ptycanthum), cocklebur (common cocklebur, Xanthium strumarium), cupgrass, woolly (woolly cupgrass, Eriochloa villosa), bermudagrass (Cynodon dactylon), sunflower, (common oilseed sunflower, Helianthus annuus), Russian thistle (Salsola kali) and velvetleaf (Abutilon theophrasti) were planted into a blend of loam soil and sand and treated preemergence with test chemicals formulated in a non-phytotoxic solvent mixture which included a surfactant. At the same time, plants selected from these crop and weed species and also barley (winter barley, Hordeum vulgare), […]), chickweed (common chickweed, Stellaria media), deadnettle (henbit deadnettle, Lamium amplexicaule), and canarygrass (littleseed canarygrass, Phalaris minor) were planted in pots containing Redi-Earth® planting medium (Scotts Company, 14111 Scottslawn Road, Marysville, Ohio 43041) comprising spaghnum peat moss, vermiculite, wetting agent and starter nutrients and treated with postemergence applications of test chemicals formulated in the same manner. Plants ranged in height from 2 to 18 cm (1- to 4-leaf stage) for postemergence treatments. Treated plants and controls were maintained in a greenhouse for 13 to 15 days, after which time all species were compared to controls and visually evaluated. Plant response ratings, summarized in Table C, are based on a scale of 0 to 100 where 0 is no effect and 100 is complete control. A dash (-) response means no test result."}, "crabgrass, large": {"test_system": "crabgrass, large", "assay": "Test C pre-/postemergence herbicide test", "assay_type": "in vivo, Digitaria sanguinalis", "excerpt": "as §1"}, "corn": {"test_system": "corn", "assay": "Test A pre-/postemergence herbicide test", "assay_type": "in vivo, Zea mays", "outline": "(§2)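 Approximately 10 days after treatment in the greenhouse, plants were compared with untreated controls and given a 0–100 visual injury rating. Applications: preemergence directed soil spray; postemergence on 2–10 cm plants at the one- to two-leaf stage.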"}, "blackgrass": {"test_system": "blackgrass", "assay": "Test C pre-/postemergence herbicide test", "assay_type": "in vivo, Alopecurus myosuroides", "excerpt": "as §1"}, "soybean": {"test_system": "soybean", "assay": "Test C pre-/postemergence herbicide test", "assay_type": "in vivo, Glycine max", "excerpt": "as §1"}, "giant foxtail": {"test_system": "giant foxtail", "assay": "Test A pre-/postemergence herbicide test", "assay_type": "in vivo, Setaria faberii", "outline": "as §2"}, "barnyardgrass [2]": {"test_system": "barnyardgrass", "assay": "Test A pre-/postemergence herbicide test", "assay_type": "in vivo, Echinochloa crus-galli", "outline": "as §2"}, "morningglory": {"test_system": "morningglory", "assay": "Test C pre-/postemergence herbicide test", "assay_type": "in vivo, Ipomoea coccinea", "excerpt": "as §1"}, "ragweed": {"test_system": "ragweed", "assay": "Test C pre-/postemergence herbicide test", "assay_type": "in vivo, Ambrosia elatior", "excerpt": "as §1"}, "[3]": {"conditions": "Postemergence, 8 g ai/ha, scale 0 to 100 (0 no effect, 100 complete control)"}, "[4]": {"conditions": "Postemergence, 16 g ai/ha, scale 0 to 100 (0 no effect, 100 complete control)"}, "[5]": {"conditions": "Postemergence, 31 g ai/ha, scale 0 to 100 (0 no effect, 100 complete control)"}, "[6]": {"conditions": "Postemergence, 62 g ai/ha, scale 0 (no effect) to 100 (complete control)"}, "[7]": {"conditions": "Preemergence, 31 g ai/ha, scale 0 to 100, 0 is no effect and 100 is complete control"}, "[8]": {"conditions": "Preemergence, 62 g ai/ha, scale 0 to 100 (0 no effect, 100 complete control)"}, "[9]": {"conditions": "Preemergence, 8 g ai/ha, scale 0 to 100"}, "[10]": {"conditions": "Preemergence, 16 g ai/ha, scale 0 to 100"}, "[11]": {"conditions": "Postemergence, 125 g ai/ha, 0 to 100 scale, 0 is no effect, 100 is complete control"}, "[12]": {"conditions": "Postemergence, 500 g ai/ha, 0 to 100 scale (0 no effect, 100 complete control)"}, "[13]": {"conditions": "Preemergence, 125 g ai/ha, 0 to 100 scale where 0 is no effect and 100 is complete control"}, "[14]": {"conditions": "preemergence, 500 g ai/ha, 0 to 100 scale, 0 is no effect and 100 is complete control"}, "[15]": {"conditions": "Postemergence, 125 g ai/ha, 0 to 100 scale, 0 no effect, 100 complete control"}, "[16]": {"conditions": "Preemergence, 125 g ai/ha, visual rating on 0 to 100 scale (0 no effect, 100 complete control)"}, "[17]": {"conditions": "preemergence, 500 g ai/ha, 0 to 100 scale"}},
  "data": [
    {"smiles": "CN1CC(c2ccc(F)cc2)C(C(=O)Nc2cccc(F)c2F)C1=O", "note": "(stereo not drawn) [Compound 271]", "values": [
      {"measurement": "Plant response rating, Barnyardgrass", "setting": "barnyardgrass [1]; [3]", "value": 0},
      {"measurement": "Plant response rating, Barnyardgrass", "setting": "barnyardgrass [1]; [4]", "value": 0},
      {"measurement": "Plant response rating, Barnyardgrass", "setting": "barnyardgrass [1]; [5]", "value": 0},
      {"measurement": "Plant response rating, Barnyardgrass", "setting": "barnyardgrass [1]; [6]", "value": 0},
      {"measurement": "Barnyardgrass plant response rating", "setting": "barnyardgrass [1]; [7]", "value": 90},
      {"measurement": "Barnyardgrass plant response rating", "setting": "barnyardgrass [1]; [8]", "value": 95},
      {"measurement": "Plant response rating, Barnyardgrass", "setting": "barnyardgrass [1]; [9]", "value": 0},
      {"measurement": "Plant response rating, Barnyardgrass", "setting": "barnyardgrass [1]; [10]", "value": 75},
      {"measurement": "Plant response rating, Crabgrass, Large", "setting": "crabgrass, large; [3]", "value": 0},
      {"measurement": "Plant response rating, Crabgrass, Large", "setting": "crabgrass, large; [4]", "value": 0},
      {"measurement": "Plant response rating, Crabgrass, Large", "setting": "crabgrass, large; [5]", "value": 5},
      {"measurement": "Plant response rating, Crabgrass, Large", "setting": "crabgrass, large; [6]", "value": 5},
      {"measurement": "Crabgrass, Large plant response rating", "setting": "crabgrass, large; [7]", "value": 95},
      {"measurement": "Crabgrass, Large plant response rating", "setting": "crabgrass, large; [8]", "value": 100},
      {"measurement": "Plant response rating, Crabgrass, Large", "setting": "crabgrass, large; [9]", "value": 50},
      {"measurement": "Plant response rating, Crabgrass, Large", "setting": "crabgrass, large; [10]", "value": 90},
      {"measurement": "Plant response rating, Corn", "setting": "corn; [11]", "value": 20},
      {"measurement": "Plant response rating, Corn", "setting": "corn; [12]", "value": 60},
      {"measurement": "Plant response rating, Blackgrass", "setting": "blackgrass; [3]", "value": 0},
      {"measurement": "Plant response rating, Blackgrass", "setting": "blackgrass; [4]", "value": 0},
      {"measurement": "Plant response rating, Blackgrass", "setting": "blackgrass; [5]", "value": 0},
      {"measurement": "Plant response rating, Blackgrass", "setting": "blackgrass; [6]", "value": 0},
      {"measurement": "Blackgrass plant response rating", "setting": "blackgrass; [7]", "value": 0},
      {"measurement": "Blackgrass plant response rating", "setting": "blackgrass; [8]", "value": 50},
      {"measurement": "Plant response rating, Blackgrass", "setting": "blackgrass; [9]", "value": 0},
      {"measurement": "Plant response rating, Soybean", "setting": "soybean; [3]", "value": 5},
      {"measurement": "Plant response rating, Soybean", "setting": "soybean; [4]", "value": 45},
      {"measurement": "Plant response rating, Soybean", "setting": "soybean; [5]", "value": 15},
      {"measurement": "Plant response rating, Soybean", "setting": "soybean; [6]", "value": 60},
      {"measurement": "Soybean plant response rating", "setting": "soybean; [7]", "value": 0},
      {"measurement": "Soybean plant response rating", "setting": "soybean; [8]", "value": 0},
      {"measurement": "Plant response rating, Soybean", "setting": "soybean; [9]", "value": 0},
      {"measurement": "Plant response rating, Soybean", "setting": "soybean; [10]", "value": 0},
      {"measurement": "Plant response rating, Foxtail, Giant", "setting": "giant foxtail; [11]", "value": 90},
      {"measurement": "Plant response rating, Foxtail, Giant", "setting": "giant foxtail; [12]", "value": 90},
      {"measurement": "Plant response rating, Foxtail, Giant", "setting": "giant foxtail; [13]", "value": 90},
      {"measurement": "Plant response rating, Foxtail, Giant", "setting": "giant foxtail; [14]", "value": 90},
      {"measurement": "Plant response rating, Barnyardgrass", "setting": "barnyardgrass [2]; [11]", "value": 90},
      {"measurement": "Plant response rating, Barnyardgrass", "setting": "barnyardgrass [2]; [12]", "value": 90},
      {"measurement": "Plant response rating, Barnyardgrass", "setting": "barnyardgrass [2]; [13]", "value": 90},
      {"measurement": "Plant response rating, Barnyardgrass", "setting": "barnyardgrass [2]; [14]", "value": 90},
      {"measurement": "Plant response rating, Morningglory", "setting": "morningglory; [3]", "value": 0},
      {"measurement": "Plant response rating, Morningglory", "setting": "morningglory; [4]", "value": 0},
      {"measurement": "Plant response rating, Morningglory", "setting": "morningglory; [5]", "value": 10},
      {"measurement": "Plant response rating, Morningglory", "setting": "morningglory; [6]", "value": 45},
      {"measurement": "Morningglory plant response rating", "setting": "morningglory; [7]", "value": 0},
      {"measurement": "Morningglory plant response rating", "setting": "morningglory; [8]", "value": 10},
      {"measurement": "Plant response rating, Morningglory", "setting": "morningglory; [9]", "value": 0},
      {"measurement": "Plant response rating, Morningglory", "setting": "morningglory; [10]", "value": 0},
      {"measurement": "Plant response rating, Ragweed", "setting": "ragweed; [3]", "value": 0},
      {"measurement": "Plant response rating, Ragweed", "setting": "ragweed; [4]", "value": 15},
      {"measurement": "Plant response rating, Ragweed", "setting": "ragweed; [5]", "value": 25},
      {"measurement": "Plant response rating, Ragweed", "setting": "ragweed; [6]", "value": 40},
      {"measurement": "Ragweed plant response rating", "setting": "ragweed; [7]", "value": 0},
      {"measurement": "Ragweed plant response rating", "setting": "ragweed; [8]", "value": 10},
      {"measurement": "Plant response rating, Ragweed", "setting": "ragweed; [9]", "value": 0},
      {"measurement": "Plant response rating, Ragweed", "setting": "ragweed; [10]", "value": 0}
    ]},
    {"smiles": "O=C1NCC(c2ccc(F)c(F)c2)C1C(=O)Nc1cccc(F)c1", "note": "(racemic) [Compound 12]", "values": [
      {"measurement": "Plant response rating, Corn", "setting": "corn; [15]", "value": 0},
      {"measurement": "Plant response rating, Corn", "setting": "corn; [12]", "value": 0},
      {"measurement": "Corn plant response rating", "setting": "corn; [16]", "value": 0},
      {"measurement": "Plant response rating, Corn", "setting": "corn; [17]", "value": 0},
      {"measurement": "Plant response rating, Foxtail, Giant", "setting": "giant foxtail; [15]", "value": 60},
      {"measurement": "Plant response rating, Foxtail, Giant", "setting": "giant foxtail; [12]", "value": 80},
      {"measurement": "Foxtail, Giant plant response rating", "setting": "giant foxtail; [16]", "value": 70},
      {"measurement": "Plant response rating, Foxtail, Giant", "setting": "giant foxtail; [17]", "value": 90},
      {"measurement": "Plant response rating, Barnyardgrass", "setting": "barnyardgrass [2]; [15]", "value": 60},
      {"measurement": "Plant response rating, Barnyardgrass", "setting": "barnyardgrass [2]; [12]", "value": 90},
      {"measurement": "Barnyardgrass plant response rating", "setting": "barnyardgrass [2]; [16]", "value": 60},
      {"measurement": "Plant response rating, Barnyardgrass", "setting": "barnyardgrass [2]; preemergence, 500 g ai/ha, 0 to 100 scale (0 no effect, 100 complete control)", "value": 90}
    ]}
  ]
}
